Reference: patent US10738028B2, “Spiro three-membered ring, spiro five-membered ring peptide deformylase inhibitor and use thereof in antibacteria and anti-tumor” (priority 2016, dated 2020)
≈ marks a conversion by molar mass, not a printed value.

What was measured:
Assay type in all cases: cell-based
[1] = system: Streptococcus pneoumoniae (SPN); assay: MIC, two-fold agar dilution (CLSI), clinical isolates
Excerpt: (§1) 1. The invention adopts the two-fold agar dilution method recommended by the operating procedure of antimicrobial susceptibility testing set by American Clinical and Laboratory Standards Institute (CLSI) to determine the Minimum Inhibitory Concentration (MIC) of the test samples against the tested strains.

[2] = system: methicillin-sensitive Staphylococcus aureus (MSSA); assay: as above
Excerpt: as §1

[3] = system: methicillin-resistant Staphylococcus aureus (MRSA); assay: as above
Excerpt: as §1

[4] = system: Moraxella catarrhalis (BCA); assay: as above
Excerpt: as §1

[5] = system: Enterococcus faecalis (EFA); assay: as above
Excerpt: as §1

[6] = system: Escherichia coli (including ESBLs, non-ESBLs); assay: as above
Excerpt: as §1

[7] = system: Enterococcus faecium (EFM); assay: as above
Excerpt: as §1

[8] = system: methicillin-resistant Staphylococcus epidermidis (MRSE); assay: as above
Excerpt: as §1

[9] = system: methicillin-sensitive Staphylococcus epidermidis (MSSE); assay: as above
Excerpt: as §1

[10] = system: HCT-116 colorectal cancer cell line; assay: CCK-8 proliferation inhibition; details: Homo sapiens, HCT-116, 72 h, concentration of 30 μM; 72 hours; CCK-8; read-out: HCT116 inhibition rate/%
Method: (1) HCT-116 colorectal cancer cell line, A549 lung cancer cell line, MGC-803 gastric cancer cell line, BEL-7402 liver cancer cell line, Jurkat T cell leukemia cell line, HL60 acute myeloid leukemia cell line, Hela cervical cancer cell line, MCF-7 breast cancer cell line, PC3 prostate cancer cell line and SAOS-2 osteosarcoma cell line were made into single cell suspension, 180 μL of which was inoculated into 96-well culture plate, which was cultured overnight in CO2 incubator (37° C., 5% CO2, 95% air).
(2) Each of the spiro three-membered ring, spiro five membered ring peptide deformylase inhibitors was dissolved in DMSO, and was further formulated into drug solution with required different final concentration using corresponding cell culture medium. The drug solutions were added to the above cells respectively (20 μL/well), with the control group added with 1‰ DMSO, and cultured in a CO2 incubator for 72 hours.
(3) After incubation for 72 hours, the culture solution was decanted, and 100 μL of 1:10 diluted CCK-8 solution was added.
Wherein, in step (1), the concentration of the single cell suspension was 2000 cells/well.
Wherein, in step (2), HCT-116 cells were cultured in McCoy's 5A medium (containing 10% newborn bovine serum, 1% double antibody); A549 and PC3 cells were cultured in F12 medium (containing 10% newborn bovine serum, 1% double antibody); MGC-803, BEL-7402, SAOS-2, Jurkat and HL60 cells were cultured in 1640 medium (containing 10% newborn bovine serum, 1% double antibody); and MCF-7 and Hela cells were cultured in DMEM high glucose medium (containing 10% newborn bovine serum, 1% double antibody).

CCCC[C@H](CN(O)C=O)C(=O)N1CC2(CC2)C[C@H]1C(=O)Nc1cc(C)on1 [Example 21, (S)-5-((R)-2-((N-hydroxyformamido)methyl)hexanoyl)-N-(5-methylisoxazol-3yl)-5-spiro[2.4]heptane-6-carboxamide]
MIC (anti-bacterial activity) ([1]; strain SPN 16-2): 4 mg/L (≈ 10.2 µM)
MIC (anti-bacterial activity) ([1]; strain SPN 16-4): 0.5 mg/L (≈ 1.27 µM)
MIC (anti-bacterial activity) ([2]; strain MSSA 15-3): 0.5 mg/L (≈ 1.27 µM)
MIC (anti-bacterial activity) ([2]; strain MSSA 15-4): 0.25 mg/L (≈ 0.637 µM)
MIC (anti-bacterial activity) ([2]; strain MSSA 15-5): 0.25 mg/L (≈ 0.637 µM)
MIC (anti-bacterial activity) ([2]; strain MSSA 15-6): 0.5 mg/L (≈ 1.27 µM)
MIC (anti-bacterial activity) ([3]; strain MRSA 15-1): 0.25 mg/L (≈ 0.637 µM)
MIC (anti-bacterial activity) ([3]; strain MRSA 15-2): 0.5 mg/L (≈ 1.27 µM)
MIC (anti-bacterial activity) ([3]; strain MRSA 15-3): 0.5 mg/L (≈ 1.27 µM)
MIC (anti-bacterial activity) ([3]; strain MRSA 15-4): 0.5 mg/L (≈ 1.27 µM)
MIC (anti-bacterial activity) ([4]; strain BCA 14-1): 0.5 mg/L (≈ 1.27 µM)
MIC (anti-bacterial activity) ([4]; strain BCA 14-4): 0.5 mg/L (≈ 1.27 µM)
MIC (anti-bacterial activity) ([4]; strain BCA 14-5): 0.5 mg/L (≈ 1.27 µM)
MIC (anti-bacterial activity) ([4]; strain BCA 14-6): 0.5 mg/L (≈ 1.27 µM)
MIC (anti-bacterial activity) ([4]; strain BCA 14-7): 0.5 mg/L (≈ 1.27 µM)
MIC (anti-bacterial activity) ([4]; strain BCA 14-8): 0.5 mg/L (≈ 1.27 µM)
MIC (anti-bacterial activity) ([4]; strain BCA 14-10): 0.5 mg/L (≈ 1.27 µM)
MIC (anti-bacterial activity) ([5]; strain EFA 15-1): 16 mg/L (≈ 40.8 µM)
MIC (anti-bacterial activity) ([5]; strain EFA 15-2): 16 mg/L (≈ 40.8 µM)
MIC (anti-bacterial activity) ([5]; strain EFA 15-3): 1 mg/L (≈ 2.55 µM)
MIC (anti-bacterial activity) ([5]; strain EFA 15-4): 16 mg/L (≈ 40.8 µM)
MIC (anti-bacterial activity) ([5]; strain EFA 15-5): 16 mg/L (≈ 40.8 µM)
MIC (anti-bacterial activity) ([5]; strain EFA 15-6): 4 mg/L (≈ 10.2 µM)
MIC (anti-bacterial activity) ([5]; strain EFA 15-9): 4 mg/L (≈ 10.2 µM)
MIC (anti-bacterial activity) ([6]; strain ECO+ 15-1): 32 mg/L (≈ 81.5 µM)
MIC (anti-bacterial activity) ([6]; strain ECO+ 15-2): 32 mg/L (≈ 81.5 µM)
MIC (anti-bacterial activity) ([6]; strain ECO+ 15-3): 64 mg/L (≈ 163 µM)
MIC (anti-bacterial activity) ([6]; strain ECO+ 15-4): 64 mg/L (≈ 163 µM)
MIC (anti-bacterial activity) ([6]; strain ECO− 15-1): 64 mg/L (≈ 163 µM)
MIC (anti-bacterial activity) ([6]; strain ECO− 15-2): 64 mg/L (≈ 163 µM)
MIC (anti-bacterial activity) ([6]; strain ECO− 15-3): 64 mg/L (≈ 163 µM)
MIC (anti-bacterial activity) ([6]; strain ECO− 15-4): 64 mg/L (≈ 163 µM)
MIC (anti-bacterial activity) ([7]; strain EFM 15-1): 0.5 mg/L (≈ 1.27 µM)
MIC (anti-bacterial activity) ([7]; strain EFM 15-2): 1 mg/L (≈ 2.55 µM)
MIC (anti-bacterial activity) ([7]; strain EFM 15-3): 0.5 mg/L (≈ 1.27 µM)
MIC (anti-bacterial activity) ([7]; strain EFM 15-4): 1 mg/L (≈ 2.55 µM)
MIC (anti-bacterial activity) ([7]; strain EFM 15-5): 0.5 mg/L (≈ 1.27 µM)
MIC (anti-bacterial activity) ([7]; strain EFM 15-6): 2 mg/L (≈ 5.1 µM)
MIC (anti-bacterial activity) ([8]; strain MRSE 15-1): 0.25 mg/L (≈ 0.637 µM)
MIC (anti-bacterial activity) ([8]; strain MRSE 15-2): 0.25 mg/L (≈ 0.637 µM)
MIC (anti-bacterial activity) ([8]; strain MRSE 15-3): 0.25 mg/L (≈ 0.637 µM)
MIC (anti-bacterial activity) ([8]; strain MRSE 15-7): 0.25 mg/L (≈ 0.637 µM)
MIC (anti-bacterial activity) ([9]; strain MSSE 15-3): 0.5 mg/L (≈ 1.27 µM)
MIC (anti-bacterial activity) ([9]; strain MSSE 15-4): 0.25 mg/L (≈ 0.637 µM)
MIC (anti-bacterial activity) ([9]; strain MSSE 15-5): 0.03 mg/L (≈ 0.0764 µM)
MIC (anti-bacterial activity) ([9]; strain MSSE 15-6): 0.03 mg/L (≈ 0.0764 µM)
inhibition at 30 µM [10]: 8%

CCCC[C@H](CN(O)C=O)C(=O)N1CC2(CC2)C[C@H]1C(=O)Nc1nncs1 [Example 23, (S)-5-((R)-2-((N-hydroxyformamido)methyl)hexanoyl)-N-(1,3,4-thiadiazol-2-yl)-5-azaspiro[2.4]heptane-6-carboxamide]
MIC (anti-bacterial activity) ([1]; strain SPN 16-2): 15 mg/L (≈ 37.9 µM)
MIC (anti-bacterial activity) ([1]; strain SPN 16-4): 1 mg/L (≈ 2.53 µM)
MIC (anti-bacterial activity) ([2]; strain MSSA 15-3): 1 mg/L (≈ 2.53 µM)
MIC (anti-bacterial activity) ([2]; strain MSSA 15-4): 1 mg/L (≈ 2.53 µM)
MIC (anti-bacterial activity) ([2]; strain MSSA 15-5): 0.25 mg/L (≈ 0.632 µM)
MIC (anti-bacterial activity) ([2]; strain MSSA 15-6): 0.25 mg/L (≈ 0.632 µM)
MIC (anti-bacterial activity) ([3]; strain MRSA 15-1): 0.25 mg/L (≈ 0.632 µM)
MIC (anti-bacterial activity) ([3]; strain MRSA 15-2): 2 mg/L (≈ 5.06 µM)
MIC (anti-bacterial activity) ([3]; strain MRSA 15-3): 0.25 mg/L (≈ 0.632 µM)
MIC (anti-bacterial activity) ([3]; strain MRSA 15-4): 2 mg/L (≈ 5.06 µM)
MIC (anti-bacterial activity) ([4]; strain BCA 14-1): 8 mg/L (≈ 20.2 µM)
MIC (anti-bacterial activity) ([4]; strain BCA 14-4): 4 mg/L (≈ 10.1 µM)
MIC (anti-bacterial activity) ([4]; strain BCA 14-5): 1 mg/L (≈ 2.53 µM)
MIC (anti-bacterial activity) ([4]; strain BCA 14-6): 4 mg/L (≈ 10.1 µM)
MIC (anti-bacterial activity) ([4]; strain BCA 14-7): 2 mg/L (≈ 5.06 µM)
MIC (anti-bacterial activity) ([4]; strain BCA 14-8): 2 mg/L (≈ 5.06 µM)
MIC (anti-bacterial activity) ([4]; strain BCA 14-10): 1 mg/L (≈ 2.53 µM)
MIC (anti-bacterial activity) ([5]; strain EFA 15-1): 32 mg/L (≈ 80.9 µM)
MIC (anti-bacterial activity) ([5]; strain EFA 15-2): 32 mg/L (≈ 80.9 µM)
MIC (anti-bacterial activity) ([5]; strain EFA 15-3): 1 mg/L (≈ 2.53 µM)
MIC (anti-bacterial activity) ([5]; strain EFA 15-4): 32 mg/L (≈ 80.9 µM)
MIC (anti-bacterial activity) ([5]; strain EFA 15-5): 32 mg/L (≈ 80.9 µM)
MIC (anti-bacterial activity) ([5]; strain EFA 15-6): 32 mg/L (≈ 80.9 µM)
MIC (anti-bacterial activity) ([5]; strain EFA 15-9): 32 mg/L (≈ 80.9 µM)
MIC (anti-bacterial activity) ([6]; strain ECO+ 15-1): > 32 mg/L
MIC (anti-bacterial activity) ([6]; strain ECO+ 15-2): > 32 mg/L
MIC (anti-bacterial activity) ([6]; strain ECO+ 15-3): > 32 mg/L
MIC (anti-bacterial activity) ([6]; strain ECO+ 15-4): > 32 mg/L
MIC (anti-bacterial activity) ([6]; strain ECO− 15-1): > 32 mg/L
MIC (anti-bacterial activity) ([6]; strain ECO− 15-2): > 32 mg/L
MIC (anti-bacterial activity) ([6]; strain ECO− 15-3): > 32 mg/L
MIC (anti-bacterial activity) ([6]; strain ECO− 15-4): > 32 mg/L
MIC (anti-bacterial activity) ([7]; strain EFM 15-1): 1 mg/L (≈ 2.53 µM)
MIC (anti-bacterial activity) ([7]; strain EFM 15-2): 8 mg/L (≈ 20.2 µM)
MIC (anti-bacterial activity) ([7]; strain EFM 15-3): 0.5 mg/L (≈ 1.26 µM)
MIC (anti-bacterial activity) ([7]; strain EFM 15-4): 8 mg/L (≈ 20.2 µM)
MIC (anti-bacterial activity) ([7]; strain EFM 15-5): 0.5 mg/L (≈ 1.26 µM)
MIC (anti-bacterial activity) ([7]; strain EFM 15-6): 8 mg/L (≈ 20.2 µM)
MIC (anti-bacterial activity) ([8]; strain MRSE 15-1): 0.25 mg/L (≈ 0.632 µM)
MIC (anti-bacterial activity) ([8]; strain MRSE 15-2): 0.25 mg/L (≈ 0.632 µM)
MIC (anti-bacterial activity) ([8]; strain MRSE 15-3): 0.25 mg/L (≈ 0.632 µM)
MIC (anti-bacterial activity) ([8]; strain MRSE 15-7): 1 mg/L (≈ 2.53 µM)
MIC (anti-bacterial activity) ([9]; strain MSSE 15-3): 0.25 mg/L (≈ 0.632 µM)
MIC (anti-bacterial activity) ([9]; strain MSSE 15-4): 0.25 mg/L (≈ 0.632 µM)
MIC (anti-bacterial activity) ([9]; strain MSSE 15-5): 0.25 mg/L (≈ 0.632 µM)
MIC (anti-bacterial activity) ([9]; strain MSSE 15-6): 0.25 mg/L (≈ 0.632 µM)
inhibition at 30 µM [10]: 7%
